Experimental data as given in patent US20040009599A1, “Antisense modulation of cellular inhibitor of apoptosis-1 expression” (priority 1998, published 2004).
Strand notation (5' to 3'): a small letter for the sugar, then the base; units joined by * are phosphorothioate-linked, units joined directly phosphodiester-linked; [ ] holds rarer units or linkages, { } end groups; capitals alone tell only the bases. d = 2'-deoxy (DNA)

System: human Cellular Inhibitor of Apoptosis-1 RNA
Assay: Inhibition of Cellular Inhibitor of Apoptosis-1 mRNA levels by quantitative real-time PCR after oligonucleotide treatment of cells
Type: cell-based
Conditions: for % Inhibition of Cellular Inhibitor of Apoptosis-1 mRNA levels: phosphorothioate oligodeoxynucleotides, oligonucleotide at final concentration of 150 nM with LIPOFECTIN, real-time PCR, averages from three experiments
Protocol: Cells were harvested 16 hours after oligonucleotide treatment.
Poly(A)+ mRNA was isolated according to Miura et al., Clin. Chem., 1996, 42, 1758-1764. Other methods for poly(A)+ mRNA isolation are taught in, for example, Ausubel, F. M. et al., Current Protocols in Molecular Biology, Volume 1, pp. 4.5.1-4.5.3, John Wiley & Sons, Inc., 1993. […] 60 μL lysis buffer (10 mM Tris-HCl, pH 7.6, 1 mM EDTA, 0.5 M NaCl, 0.5% NP-40, 20 mM vanadyl-ribonucleoside complex) was added to each well, the plate was gently agitated and then incubated at room temperature for five minutes. 55 μL of lysate was transferred to Oligo d(T) coated 96-well plates (AGCT Inc., Irvine Calif.). Plates were incubated for 60 minutes at room temperature, washed 3 times with 200 μL of wash buffer (10 mM Tris-HCl pH 7.6, 1 mM EDTA, 0.3 M NaCl). After the final wash, the plate was blotted on paper towels to remove excess wash buffer and then air-dried for 5 minutes. 60 μL of elution buffer (5 mM Tris-HCl pH 7.6), preheated to 70° C. was added to each well, the plate was incubated on a 90° C. hot plate for 5 minutes, and the eluate was then transferred to a fresh 96-well plate.
Cellular Inhibitor of Apoptosis-1 probes and primers were designed to hybridize to the human Cellular Inhibitor of Apoptosis-1 sequence, using published sequence information (GenBank accession number U37547, incorporated herein as SEQ ID NO:1).
For Cellular Inhibitor of Apoptosis-1 the PCR primers were: […]
Target sites are indicated by nucleotide numbers, as given in the sequence source reference (Genbank accession no. U37547), to which the oligonucleotide binds. All compounds in Table 1 are oligodeoxynucleotides with phosphorothioate backbones (internucleoside linkages) throughout. […] Data are averages from three experiments. If present, “N.D.” indicates “no data”.

Row | Substance | % Inhibition of Cellular Inhibitor of Apoptosis-1 mRNA levels [%] | inhibition of Cellular Inhibitor of Apoptosis-1 expression (summary of Table 1, real-time PCR of mRNA levels)
1 | ISIS 23361: phosphorothioate oligodeoxynucleotide taccttgaatctcatcaa, Coding target site 2193 (antisense dT*dA*dC*dC*dT*dT*dG*dA*dA*dT*dC*dT*dC*dA*dT*dC*dA*dA) | 0 | 
2 | ISIS 23362: phosphorothioate oligodeoxynucleotide ataattggtgggtcagca, Coding target site 2269 (antisense dA*dT*dA*dA*dT*dT*dG*dG*dT*dG*dG*dG*dT*dC*dA*dG*dC*dA) | 0 | 
3 | ISIS 23363: phosphorothioate oligodeoxynucleotide ttttactttgaactgttt, Coding target site 2391 (antisense dT*dT*dT*dT*dA*dC*dT*dT*dT*dG*dA*dA*dC*dT*dG*dT*dT*dT) | 0 | 
4 | ISIS 23364: phosphorothioate oligodeoxynucleotide catttcttcagcttgttt, Coding target site 2501 (antisense dC*dA*dT*dT*dT*dC*dT*dT*dC*dA*dG*dC*dT*dT*dG*dT*dT*dT) | 0 | 
5 | ISIS 23365: phosphorothioate oligodeoxynucleotide tcgcttgtaaaggtatct, Coding target site 2661 (antisense dT*dC*dG*dC*dT*dT*dG*dT*dA*dA*dA*dG*dG*dT*dA*dT*dC*dT) | 0 | 
6 | ISIS 23366: phosphorothioate oligodeoxynucleotide attcttatccacaaataa, Coding target site 2774 (antisense dA*dT*dT*dC*dT*dT*dA*dT*dC*dC*dA*dC*dA*dA*dA*dT*dA*dA) | 0 | 
7 | ISIS 23367: phosphorothioate oligodeoxynucleotide gaccacaaggaataaata, Coding target site 2904 (antisense dG*dA*dC*dC*dA*dC*dA*dA*dG*dG*dA*dA*dT*dA*dA*dA*dT*dA) | 0 | 
8 | ISIS 23368: phosphorothioate oligodeoxynucleotide ttagatggcttcaagtgt, 3′ UTR target site 3071 (antisense dT*dT*dA*dG*dA*dT*dG*dG*dC*dT*dT*dC*dA*dA*dG*dT*dG*dT) | 10 | 
9 | ISIS 23369: phosphorothioate oligodeoxynucleotide atatagttcaccaaacat, 3′ UTR target site 3222 (antisense dA*dT*dA*dT*dA*dG*dT*dT*dC*dA*dC*dC*dA*dA*dA*dC*dA*dT) | 0 | 
10 | ISIS 23370: phosphorothioate oligodeoxynucleotide ttcctggtttccagttct, 3′ UTR target site 3355 (antisense dT*dT*dC*dC*dT*dG*dG*dT*dT*dT*dC*dC*dA*dG*dT*dT*dC*dT) | 46 | at least 20%
11 | ISIS 23371: phosphorothioate oligodeoxynucleotide agtgaaaagcaccaaaga, 3′ UTR target site 3407 (antisense dA*dG*dT*dG*dA*dA*dA*dA*dG*dC*dA*dC*dC*dA*dA*dA*dG*dA) | 0 | 
